Laboratory results as given in PubChem BioAssay AID2060897 (Molecular Pharmacology Branch, DTP, NCI, 2025).
Each block holds one molecule with its values, some of them ahead of it.

Tested on: 966289-007-R4-J1-PDC complex spheroid viability
Test: Anticancer human tumor 966289-007-R4-J1-PDC patient-derived pancreatic adenocarcinoma cell line growth inhibition [RAS]
Conditions: for viability, T/C: stronger effect = lower value
Text: RAS pathway inhibitors in Combinations in Complex Spheroids
A high-throughput screen of multi-cell type tumor spheroids was designed to identify active combinations of RAS pathway inhibitors and targeted small molecules. Complex spheroids include a stromal component modeled by human endothelial cells (HUVEC) and fibroblasts modeled by human mesenchymal stem cells (MSCs). The concentration ranges selected for each drug and investigational agent were based upon clinically achievable concentrations if the clinical Cmax of the agent was known.
Compounds. The drugs and investigational agents: abemaciclib (NSC768073), cobimetinib (NSC768068), divarasib (GDC6063, NSC841802), docetaxel (NSC628503), GDC-1971 (RLY-1971, NSC841576), gemcitabine (NSC613327), inavolisib (NSC800729), ipatasertib (NSC767898), KB-0742 (NSC834161), MRTX-1133 (NSC836407), osimertinib (NSC779217), RMC-4630 (NSC839698), RMC-6236 (NSC851965), RMC-6291 (NSC852671), Ro-3306 (NSC812927), sapanisertib (NSC764658), SN-38 (NSC673596), staurosporine (NSC755774), SY5609 (NSC837396), and tovorafenib (DAY101, NSC766906), were obtained from the National Cancer Institute (NCI) Developmental Therapeutics Program Chemical Repository. The FDA-approved anticancer drug set is available from the NCI Developmental Therapeutics Program. […] The stock solutions were prepared in dimethyl sulfoxide (DMSO, Sigma-Aldrich, St. Louis, MO, cat. D2650) at 800-fold the tested concentration and stored at -70 degrees C prior to their use. All drugs and investigational agents were tested over a range starting from a high concentration at or near the clinical Cmax and decreasing in half-log increments. If the clinical Cmax for an agent had not been determined, the highest concentration tested was 10 microM.
Cell Culture. All cells were maintained in an incubator at 37 degrees C and 5% CO2 with 95% humidity. The PDC lines were cultured according to standard operating procedures established by the NCI PDMR. All PDCs were thawed and cultured in Matrigel-coated flasks prepared with a working solution of 1X Ham's F-12 nutrient mix, without supplementation (Invitrogen, Waltham, MA, cat. 11765054), 100 U/mL penicillin-streptomycin (Invitrogen, cat. 15140122), and 2.5% Matrigel (Corning Inc., Corning, NY, cat. 354248) for the first three passages. The 362531-283-R-J2-PDC and 782815-120-R-J1-PDC lines were cultured in 6C/Colon 1B media, which includes advanced DMEM/F-12 (Thermo Fisher Scientific, cat. 12634028), 10 mM HEPES (Thermo Fisher Scientific, cat. 15630080), 1X GlutaMAX supplement (Thermo Fisher Scientific, cat. 35050061), 0.1 mg/mL primocin (InvivoGen, San Diego, CA, cat. ant-pm-2), 10% defined fetal bovine serum, heat inactivated (HyClone Laboratories Inc., Logan, UT, cat. SH30070.03HI), 50% L-WRN conditioned media (ATCC, cat. CRL-3276), 1.25 mM N-Acetyl-L-cysteine (Sigma-Aldrich, cat. A9165), 10 mM nicotinamide (Sigma-Aldrich, cat. N0636), 1X B-27 supplement (Thermo Fisher Scientific, cat. 17504044), 1X N-2 supplement (Thermo Fisher Scientific, cat. 17502048), 50 ng/mL human EGF (Thermo Fisher Scientific, cat. PHG0311), and 10 microM Y-27632 dihydrochloride (Tocris Bioscience, cat. 1254). The K12877-001-R-J1-PDC line was cultured in 6I media, which includes all 6C/Colon 1B media plus 10 ng/mL human FGF-10 (PeproTech, cat. 100-26), 1 ng/mL human FGF-2 (PeproTech, cat. 100-18B), 1 µM prostaglandin E2 (Tocris Bioscience, cat. 2296), […] hydrocortisone (Sigma-Aldrich, cat. H4001), and […] bovine insulin (Sigma-Aldrich, cat. I6634). The K86415-001-R-J1-PDC line was cultured in 6D media, which includes all 6C/Colon 1B media components minus the L-WRN conditioned media. The 485176-168-R4-J1-PDC was cultured in PANC media, which includes all 6C/Colon 1B media plus 100 ng/mL human FGF-10 (PeproTech, cat. 100-26), 500 nM SB-431542 (Selleckchem, cat. S1067), and 10 nM gastrin (Tocris Bioscience, cat. 3006). […]
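Further: spheroids exposed to agents for one week before readout.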
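Wherever viability, T/C is given: percent viability relative to DMSO vehicle control wells as 100%.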

IC50 (curve of first compound, second compound 0.000949 µM): 4.98 nM
IC50 (curve of first compound, second compound 0.003 µM): 5.32 nM
IC50 (curve of first compound, second compound 0.00949 µM): 4.93 nM
IC50 (curve of first compound, second compound 0.03 µM): 3.82 nM
IC50 (curve of first compound, second compound 0.0949 µM): 4.06 nM
IC50 (curve of first compound, second compound 0.3 µM): 2.89 nM
Structure (SMILES): CC1(C)CCC(Nc2ncc(C(F)(F)F)c(-c3c[nH]c4c(P(C)(C)=O)c(C#N)ccc34)n2)CN1 (configuration not stated) + CCn1c(-c2cccnc2C(C)OC)c2c3cc(ccc31)N1CCOC(CC(NC(=O)C(C(C)C)N(C)C(=O)C3(F)CCN(C(=O)C#CC(C)(C)N(C)C)CC3)C(=O)N3CCCC(N3)C(=O)OCC(C)(C)C2)C1
viability, T/C (second compound 0.000949 µM, first compound 0.000949 µM): 136%
viability, T/C (second compound 0.000949 µM, first compound 0.003 µM): 75.5%
viability, T/C (second compound 0.000949 µM, first compound 0.00949 µM): 17.6%
viability, T/C (second compound 0.000949 µM, first compound 0.03 µM): 7.64%
viability, T/C (second compound 0.000949 µM, first compound 0.0949 µM): 5.45%
viability, T/C (second compound 0.000949 µM, first compound 0.3 µM): 7.38%
viability, T/C (second compound 0.003 µM, first compound 0.000949 µM): 90.5%
viability, T/C (second compound 0.003 µM, first compound 0.003 µM): 77.4%
viability, T/C (second compound 0.003 µM, first compound 0.00949 µM): 22.3%
viability, T/C (second compound 0.003 µM, first compound 0.03 µM): 7.6%
viability, T/C (second compound 0.003 µM, first compound 0.0949 µM): 5.79%
viability, T/C (second compound 0.003 µM, first compound 0.3 µM): 7.11%
viability, T/C (second compound 0.00949 µM, first compound 0.000949 µM): 83.3%
viability, T/C (second compound 0.00949 µM, first compound 0.003 µM): 75.1%
viability, T/C (second compound 0.00949 µM, first compound 0.00949 µM): 16.9%
viability, T/C (second compound 0.00949 µM, first compound 0.03 µM): 8.28%
viability, T/C (second compound 0.00949 µM, first compound 0.0949 µM): 5.11%
viability, T/C (second compound 0.00949 µM, first compound 0.3 µM): 5.09%
viability, T/C (second compound 0.03 µM, first compound 0.000949 µM): 72%
viability, T/C (second compound 0.03 µM, first compound 0.003 µM): 59.6%
viability, T/C (second compound 0.03 µM, first compound 0.00949 µM): 13.6%
viability, T/C (second compound 0.03 µM, first compound 0.03 µM): 5.23%
viability, T/C (second compound 0.03 µM, first compound 0.0949 µM): 4.63%
viability, T/C (second compound 0.03 µM, first compound 0.3 µM): 3.91%
viability, T/C (second compound 0.0949 µM, first compound 0.000949 µM): 71.8%
viability, T/C (second compound 0.0949 µM, first compound 0.003 µM): 65.2%
viability, T/C (second compound 0.0949 µM, first compound 0.00949 µM): 7.56%
viability, T/C (second compound 0.0949 µM, first compound 0.03 µM): 3.47%
viability, T/C (second compound 0.0949 µM, first compound 0.0949 µM): 3.17%
viability, T/C (second compound 0.0949 µM, first compound 0.3 µM): 3.37%
viability, T/C (second compound 0.3 µM, first compound 0.000949 µM): 62.6%
viability, T/C (second compound 0.3 µM, first compound 0.003 µM): 49.6%
viability, T/C (second compound 0.3 µM, first compound 0.00949 µM): 6.28%
viability, T/C (second compound 0.3 µM, first compound 0.03 µM): 2.91%
viability, T/C (second compound 0.3 µM, first compound 0.0949 µM): 2.13%
viability, T/C (second compound 0.3 µM, first compound 0.3 µM): 1.99%

IC50 (curve of compound): 33.4 nM [middle of 4 runs]
Structure (SMILES): CC(C)n1nc(-c2ccc3oc(N)nc3c2)c2c(N)ncnc21
viability, T/C (compound 0.0316 µM): 52.2% [middle of 4 runs]
viability, T/C (compound 0.1 µM): 18.5% [middle of 4 runs]

IC50 (curve of first compound, second compound 0.0316 µM): 7.64 nM
IC50 (curve of first compound, second compound 0.1 µM): 11.9 nM
IC50 (curve of first compound, second compound 0.316 µM): 8.38 nM
IC50 (curve of first compound, second compound 1 µM): 8.9 nM
IC50 (curve of first compound, second compound 3.16 µM): 8.38 nM
IC50 (curve of first compound, second compound 10 µM): 7.88 nM
Structure (SMILES): Nc1ccn(C2OC(CO)C(O)C2(F)F)c(=O)n1 (configuration not stated) + C#Cc1c(F)ccc2cc(O)cc(-c3ncc4c(N5CC6CCC(C5)N6)nc(OCC56CCCN5CC(F)C6)nc4c3F)c12
viability, T/C (second compound 0.0316 µM, first compound 0.00316 µM): 108%
viability, T/C (second compound 0.0316 µM, first compound 0.01 µM): 32.5%
viability, T/C (second compound 0.0316 µM, first compound 0.0316 µM): 2.19%
viability, T/C (second compound 0.0316 µM, first compound 0.1 µM): 1.41%
viability, T/C (second compound 0.0316 µM, first compound 0.316 µM): 1.38%
viability, T/C (second compound 0.0316 µM, first compound 1 µM): 1.56%
viability, T/C (second compound 0.1 µM, first compound 0.00316 µM): 99.4%
viability, T/C (second compound 0.1 µM, first compound 0.01 µM): 58.5%
viability, T/C (second compound 0.1 µM, first compound 0.0316 µM): 1.48%
viability, T/C (second compound 0.1 µM, first compound 0.1 µM): 1.34%
viability, T/C (second compound 0.1 µM, first compound 0.316 µM): 1.6%
viability, T/C (second compound 0.1 µM, first compound 1 µM): 1.65%
viability, T/C (second compound 0.316 µM, first compound 0.00316 µM): 91.6%
viability, T/C (second compound 0.316 µM, first compound 0.01 µM): 42.4%
viability, T/C (second compound 0.316 µM, first compound 0.0316 µM): 1.95%
viability, T/C (second compound 0.316 µM, first compound 0.1 µM): 1.65%
viability, T/C (second compound 0.316 µM, first compound 0.316 µM): 1.22%
viability, T/C (second compound 0.316 µM, first compound 1 µM): 1.73%
viability, T/C (second compound 1 µM, first compound 0.00316 µM): 101%
viability, T/C (second compound 1 µM, first compound 0.01 µM): 44.2%
viability, T/C (second compound 1 µM, first compound 0.0316 µM): 2.02%
viability, T/C (second compound 1 µM, first compound 0.1 µM): 1.61%
viability, T/C (second compound 1 µM, first compound 0.316 µM): 1.68%
viability, T/C (second compound 1 µM, first compound 1 µM): 1.67%
viability, T/C (second compound 3.16 µM, first compound 0.00316 µM): 97.4%
viability, T/C (second compound 3.16 µM, first compound 0.01 µM): 41.4%
viability, T/C (second compound 3.16 µM, first compound 0.0316 µM): 2.43%
viability, T/C (second compound 3.16 µM, first compound 0.1 µM): 2.49%
viability, T/C (second compound 3.16 µM, first compound 0.316 µM): 2.42%
viability, T/C (second compound 3.16 µM, first compound 1 µM): 2.25%
viability, T/C (second compound 10 µM, first compound 0.00316 µM): 99.1%
viability, T/C (second compound 10 µM, first compound 0.01 µM): 37.1%
viability, T/C (second compound 10 µM, first compound 0.0316 µM): 1.37%
viability, T/C (second compound 10 µM, first compound 0.1 µM): 1.51%
viability, T/C (second compound 10 µM, first compound 0.316 µM): 1.83%
viability, T/C (second compound 10 µM, first compound 1 µM): 1.37%
